Source: PubChem BioAssay (NCI)
Several values for one entry are separate records, joined by “and”; a condition that tells them apart may be missing. Identical values can stand only once.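 Cells were grown in 96-well plates and exposed to each compound for 48 hours at five concentrations; endpoints were interpolated linearly between bracketing concentrations, or set to the highest concentration if not reached. The concentration for 50% growth inhibition is given as GI50. TGI: total growth inhibition.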

Legend:
Assay in all cases: growth of human tumour cells (NCI), 48 h
HCC-2998 colon = test system: HCC-2998 colon
SK-MEL-28 melanoma = test system: SK-MEL-28 melanoma
BT-549 breast = test system: BT-549 breast
SN12C renal = test system: SN12C renal
HT29 colon = test system: HT29 colon
RPMI-8226 leukemia = test system: RPMI-8226 leukemia
SNB-19 CNS = test system: SNB-19 CNS
SK-OV-3 ovarian = test system: SK-OV-3 ovarian
OVCAR-8 ovarian = test system: OVCAR-8 ovarian
K-562 leukemia = test system: K-562 leukemia

Compound | GI50 (HCC-2998 colon) [µM] | TGI (HCC-2998 colon) | GI50 (SK-MEL-28 melanoma) [µM] | TGI (SK-MEL-28 melanoma) | GI50 (BT-549 breast) [µM] | TGI (BT-549 breast) | GI50 (SN12C renal) [µM] | TGI (SN12C renal) | GI50 (HT29 colon) [µM] | TGI (HT29 colon) | GI50 (RPMI-8226 leukemia) [µM] | TGI (RPMI-8226 leukemia) | GI50 (SNB-19 CNS) [µM] | TGI (SNB-19 CNS) | GI50 (SK-OV-3 ovarian) [µM] | TGI (SK-OV-3 ovarian) | GI50 (OVCAR-8 ovarian) [µM] | TGI (OVCAR-8 ovarian) | GI50 (K-562 leukemia) [µM] | TGI (K-562 leukemia)
COc1ccc(C(=NN=C(N)N)c2ccc(OC)cc2)cc1 | 3.53 | 14.4 µM | 5.7 | 19.1 µM | 3.94 | 15.6 µM | 3.15 | 15.5 µM | 2.95 | 12.6 µM | 5.46 | 21.8 µM | 3.72 | 16.4 µM | 2.78 | 10.6 µM | 5.29 | 21.1 µM | 3.7 | 15.4 µM
COc1cc(/C=C/c2cc(/C=C/c3ccc(O)c(OC)c3)n(C(=O)Nc3ccccc3Cl)n2)ccc1O | 0.725 | 5.72 µM | 0.519 | 4.11 µM | 0.303 | 2.75 µM | 0.366 | 5.77 µM | 0.323 | 1.36 µM | 0.321 | 1.55 µM | 0.743 | 4.23 µM | 0.401 | 2.35 µM | 0.378 | 1.6 µM | 0.301 | 3.11 µM
COc1ccc(CCN(CC(=O)N(CC(N)=O)C2CCC[C@@H]2OCc2ccccc2)C(=O)CN(C(=O)CN(CCc2ccc(Cl)cc2)C(=O)CN(C(=O)CN(C)Cc2ccccc2F)[C@H](C)C2CCCCC2)[C@H](C)C2CCCCC2)cc1OC (stereo partly specified) | 1.61 | > 50 µM | 1.89 | > 50 µM | 1.61 | 15.6 µM | 2.13 | > 50 µM | 1.25 | 5.75 µM | 1.19 | 3.28 µM | 1.64 | > 50 µM | 2.5 | > 50 µM | 2.82 | > 50 µM | 1.61 | > 50 µM
COc1cc(N2C(=O)[C@H](c3ccccc3)C2c2ccc(SC)cc2)cc(OC)c1OC (stereo partly specified) | 0.0438 | > 100 µM |  |  | 0.0299 | 0.0937 µM | 0.05 | > 100 µM | 0.0324 | 1.76 µM | 0.0416 | 7.68 µM | 0.0422 | > 100 µM | 0.0676 | > 100 µM | 0.0388 | > 100 µM | 0.037 | > 100 µM
COCCOC1=CC(=O)c2c(O)ccc(O)c2C1=O | 1.7 | 4.03 µM and 3.12 µM | 1.75 | 2.9 µM and 3.37 µM |  | 3.17 µM | 1.46 | 3.03 µM and 2.83 µM | 0.995 | 2.05 µM and 2.64 µM | 2.03 | 8.86 µM and 5.06 µM |  | 3.82 µM | 17.9 | 31.7 µM |  | 3.49 µM | 1.4 | 5.77 µM and 3.57 µM
CC(C)(C)c1cc(/C=N/NC(=O)c2ccccc2NC(=O)c2cccs2)c(O)c(C(C)(C)C)c1 | 0.88 | 30.1 µM | 3 | 46.2 µM | 4.65 | > 100 µM | 1.92 | 62.8 µM | 0.798 | > 100 µM | 1.05 | 14 µM | 0.916 | 71.1 µM | 1.29 | > 100 µM | 0.895 | 11.2 µM | 1.1 | 51.6 µM
Cc1ccc2cccc(OC(=O)Nc3cccc(C(F)(F)F)c3)c2n1 | 5.29 | 18.5 µM | 4.34 | 16.3 µM | 10.7 | 26.8 µM | 2.66 | 8.18 µM | 3.45 | 12 µM | 2.52 | 7.21 µM | 2.89 | 12.5 µM | 4.37 | 16.2 µM | 3.5 | 14.9 µM | 3.63 | 17.8 µM
O=C(O)c1cc(=O)cc(C(=O)O)o1 | > 100 | > 100 µM | > 100 | > 100 µM | > 100 | > 100 µM |  |  | > 100 | > 100 µM | > 100 | > 100 µM | > 100 | > 100 µM | > 100 | > 100 µM |  |  | > 100 | > 100 µM
COc1cc(/C=C2\CCC/C(=C\c3ccc(O)c(OC)c3)C2=O)ccc1O | 1.67 | 8.09 µM and 3.04 µM | 1.68 | 16.4 µM and 4.05 µM | 1.76 | 14.2 µM and 3.28 µM | 1.87 | 6.33 µM and 5.01 µM | 2.31 | 18.8 µM and 5.68 µM | 0.397 | 10.8 µM and 3.59 µM | 2.46 | 22.1 µM and 10.2 µM | 2.36 | 15.5 µM and 6.31 µM | 2.49 | 3.39 µM and 11.1 µM | 2.71 | > 61 µM and 25.7 µM
O=c1c2ccccc2c(/C=N\NC2=NCCN2)c2oc3ccccc3n12 | 12.9 | 34.1 µM | 20.7 | 49 µM | 31.3 | > 100 µM | 11.2 | 27.7 µM | 20.7 | > 100 µM | 28.6 | > 100 µM | 22.5 | 51.3 µM | 19.5 | 40.8 µM | 19.4 | 45.6 µM | 22.2 | > 100 µM
CC(=O)CC/C=C(\C)[C@H](O)[C@H](C)C(=O)O[C@H]1C[C@H](C)C=C2C=C[C@@]3(C)O[C@@H](O)CC(=O)[C@]3(C)[C@H]21 | 0.394 | 1.96 µM | 0.364 | 2.18 µM | 0.781 | 3.76 µM | 0.324 | 2.43 µM | 0.264 | 1.37 µM | 0.308 | 2.25 µM | 0.331 | 2.49 µM | 1.26 | 6.42 µM | 0.425 | 6 µM |  | 
COC(=O)[C@]12CC[C@@H](C)[C@H](C)[C@@H]1C1=CC[C@@H]3[C@@]4(C)C[C@@H](OC(=O)/C=C/c5ccccc5)[C@H](O)[C@@](C)(CO)[C@@H]4[C@H](O)C[C@@]3(C)[C@]1(C)CC2 | 2.13 | 4.88 µM | 2.69 | 9.36 µM | 1.76 | 3.97 µM | 1.83 | 3.6 µM | 1.8 | 3.81 µM | 2.54 | 7.86 µM | 3.51 | 16.6 µM | 3.91 | 14.3 µM | 3.2 | 11.5 µM | 2.45 | 6.05 µM
N#CC1=C(N)NC(=S)NC12Nc1ccccc1S2 (stereo unspecified) | 33 | > 100 µM | 26.3 | 66.9 µM | 18.6 | 53 µM | 20.5 | 63.6 µM | 31 | > 100 µM | 22.2 | > 100 µM | 28.1 | > 100 µM | 37.1 | > 100 µM | 39.6 | > 100 µM | 30.3 | > 100 µM
Cn1cc(-c2nc(-c3c[nH]c4ncccc34)cs2)c2ccccc21 | 1.16 | > 100 µM | 48.8 | > 100 µM | 23.7 | > 100 µM | > 100 | > 100 µM |  |  | 4.6 | > 100 µM | 71.4 | > 100 µM | 65.3 | > 100 µM | 38.2 | > 100 µM | 4.48 | > 100 µM
Cc1cc(N2CCCCC2)nc(NC2CCCC(Nc3ccnc4cc(Cl)ccc34)C2)n1 (stereo unspecified) | 1.75 | 3.4 µM | 1.8 | 3.39 µM | 1.58 | 3.07 µM |  |  |  |  | 0.472 | 2.56 µM | 1.58 | 3.44 µM | 1.65 | 3.17 µM | 1.73 | 3.27 µM | 0.316 | 1.23 µM
C=C1C(=O)O[C@H]2[C@H](OC(C)=O)[C@@H](C)CCCC3(C)OC3CCC3(CO3)[C@H](O)C[C@@H]12 (stereo partly specified) | 1.99 | 7.21 µM | 8.36 | 41.6 µM | 11.4 | 32 µM | 10.4 | 24.8 µM | 3.42 | > 100 µM | 1.38 | 4.08 µM | 25.7 | 83.1 µM | 21.2 | 62 µM | 17.5 | > 100 µM |  | 
COc1ccc(C2CC(c3ccc(Nc4ccnc5cc(Cl)ccc45)cc3)=NN2C=O)cc1 (stereo unspecified) | 18.1 | > 100 µM | 20.9 | 90.9 µM | 10.9 | 36.6 µM | 12.6 | > 100 µM | 3.81 | > 100 µM | 2.71 | 48.6 µM | 56.5 | > 100 µM | > 100 | > 100 µM | 69.8 | > 100 µM |  | 
COc1c(/C=C/C=O)cc2c(c1OC)OCO2 |  | 78.5 µM |  | > 100 µM |  | > 100 µM |  | 59.3 µM |  | 69.5 µM |  | 43.4 µM |  | 44.8 µM |  | > 100 µM |  | > 100 µM |  | 
CN(C)CC(=O)Nc1ccc2ncnc(Nc3ccc(Oc4cccc(C(F)(F)F)c4)c(Cl)c3)c2c1 | 1.66 | 3.19 µM | 1.74 | 3.22 µM | 3.91 | 17.3 µM | 2.85 | 10.5 µM | 1.72 | 4.08 µM | 1.9 | 5.51 µM | 3.34 | 14.4 µM |  |  | 3.24 | 13.1 µM | 2.21 | 6.52 µM
